Results from ChEMBL document CHEMBL1926662, “Trace amine-associated receptor 1 is a stereoselective binding site for compounds in the amphetamine class” (Bioorg Med Chem, 2011).

Columns and labels:
[1] = target: T1, Trace amine-associated receptor 1 (Homo sapiens, UniProt Q96RJ0); assay: Activation of C-terminal HA epitope tagged human TAAR1 expressed in RD-HGA16 cells co-expressing Gq protein, Galpha16 by cAMP accumulation assay; format: functional, cell-based
T1 sequence (Q96RJ0 whole entry): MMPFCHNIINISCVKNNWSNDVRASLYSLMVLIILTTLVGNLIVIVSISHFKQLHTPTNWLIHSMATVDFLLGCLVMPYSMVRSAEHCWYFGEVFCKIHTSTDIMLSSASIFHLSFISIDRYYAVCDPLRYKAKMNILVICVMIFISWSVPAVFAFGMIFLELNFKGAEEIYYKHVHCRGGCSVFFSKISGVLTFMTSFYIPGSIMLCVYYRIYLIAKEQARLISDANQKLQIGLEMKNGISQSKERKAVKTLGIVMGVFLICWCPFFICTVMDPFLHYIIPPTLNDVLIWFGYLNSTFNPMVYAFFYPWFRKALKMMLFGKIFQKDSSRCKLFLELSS

[2] = target: T2, Trace amine-associated receptor 1 (Macaca mulatta, UniProt Q8HZ64); assay: Activation of rhesus monkey TAAR1 expressed in RD-HGA16 cells co-expressing Gq protein assessed as cAMP accumulation by fluorescence plate reader; format: functional, cell-based
T2 sequence (Q8HZ64 whole entry): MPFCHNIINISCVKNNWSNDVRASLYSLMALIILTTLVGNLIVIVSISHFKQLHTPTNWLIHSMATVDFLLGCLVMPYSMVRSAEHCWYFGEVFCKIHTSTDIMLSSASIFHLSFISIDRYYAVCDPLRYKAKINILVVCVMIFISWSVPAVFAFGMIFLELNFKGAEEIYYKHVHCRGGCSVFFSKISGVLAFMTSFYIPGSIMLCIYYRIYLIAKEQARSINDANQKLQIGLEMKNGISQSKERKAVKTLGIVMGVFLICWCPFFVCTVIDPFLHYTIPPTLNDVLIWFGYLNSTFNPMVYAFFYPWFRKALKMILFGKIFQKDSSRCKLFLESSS

[3] = target: T3, Trace amine-associated receptor 1 (Rattus norvegicus, UniProt Q923Y9); assay: Activation of rat TAAR1 expressed in HEK293 cells assessed as accumulation of [3H]cAMP after 1 hr by competitive binding assay; format: functional, cell-based
T3 sequence (Q923Y9 whole entry): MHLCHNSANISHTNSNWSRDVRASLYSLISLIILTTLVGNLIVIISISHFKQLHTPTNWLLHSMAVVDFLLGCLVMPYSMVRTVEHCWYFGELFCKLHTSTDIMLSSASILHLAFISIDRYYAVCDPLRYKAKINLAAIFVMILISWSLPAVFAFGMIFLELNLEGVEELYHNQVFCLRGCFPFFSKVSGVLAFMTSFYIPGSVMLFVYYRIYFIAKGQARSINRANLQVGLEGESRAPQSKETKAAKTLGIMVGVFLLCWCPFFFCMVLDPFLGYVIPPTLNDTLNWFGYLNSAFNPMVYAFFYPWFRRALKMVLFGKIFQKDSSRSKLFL

[4] = target: T3, Trace amine-associated receptor 1; assay: Activation of rat TAAR1 expressed in HEK293 cells assessed as accumulation of [3H]cAMP after 1 hr by liquid scintillation counting; format: functional, cell-based
[5] = target: T4, Trace amine-associated receptor 1 (Mus musculus, UniProt Q923Y8); assay: Activation of mouse TAAR1 expressed in human HEK293 cells assessed as accumulation of [3H]cAMP after 1 hr by liquid scintillation counting; format: functional, cell-based
T4 sequence (Q923Y8 whole entry): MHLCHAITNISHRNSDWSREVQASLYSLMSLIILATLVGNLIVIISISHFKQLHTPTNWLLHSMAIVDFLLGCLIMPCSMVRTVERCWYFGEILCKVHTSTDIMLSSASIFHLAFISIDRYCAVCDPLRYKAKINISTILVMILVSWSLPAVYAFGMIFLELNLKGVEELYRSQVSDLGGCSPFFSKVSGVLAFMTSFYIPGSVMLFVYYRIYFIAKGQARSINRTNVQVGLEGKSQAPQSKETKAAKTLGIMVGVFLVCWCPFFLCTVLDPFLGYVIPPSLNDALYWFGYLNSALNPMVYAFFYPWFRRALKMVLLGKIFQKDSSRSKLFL

[6] = cells; details: HEK293
Description: Activation of chimeric rat-human expressed in human HEK293 cells assessed as accumulation of [3H]cAMP after 1 hr by liquid scintillation counting

[7] = target: T1, Trace amine-associated receptor 1; assay: Activation of human TAAR1 expressed in Syrian hamster AV12-664 cells co-expressing GalphaS protein assessed as accumulation of cAMP after 30 mins using cAMP XS EA/CL as substrate by luminescence method in presence of RX821002 and alprenolol; format: functional, cell-based
[8] = target: T1, Trace amine-associated receptor 1; assay: Activation of human TAAR1 expressed in human HEK293T cells assessed as cAMP accumulation after 10 mins by BRET assay; format: functional, cell-based, HEK-293T
[9] = target: T4, Trace amine-associated receptor 1; assay: Activation of mouse TAAR1 expressed in human HEK293 cells assessed as accumulation of cAMP after 15 mins; format: functional, cell-based

## COc1cccc(C[C@@H](C)N)c1
[1]; read-out: EC50
  EC50: 6500 nM
[2]; rd-hga16
  EC50: Not Active

## COc1cc(C[C@H](C)N)c(OC)cc1C
[1]; rd-hga16
  EC50: Not Active
[2]; read-out: EC50
  EC50: 900 nM

## CC(N)Cc1ccc(O)cc1 (racemic) [HYDROXYAMPHETAMINE]
[3]
  EC50: 50 nM

## C[C@H](N)Cc1ccc(O)cc1 [(S)-P-HYDROXYAMPHETAMINE]
[1]; read-out: EC50
  EC50: 2960 nM
[4]
  EC50: 190 nM
[2]; read-out: EC50
  EC50: 101 nM
[5]
  EC50: 280 nM
[6]
  EC50: > 5420 nM

## CN[C@H](C)Cc1ccccc1
[1]; read-out: EC50
  EC50: 3300 nM
[4]
  EC50: 1190 nM
[2]; read-out: EC50
  EC50: 2500 nM
[5]
  EC50: 2440 nM
[6]
  EC50: 9830 nM

## CN[C@H](C)Cc1ccc2c(c1)OCO2
[1]; rd-hga16
  EC50: Not Active
[2]; read-out: EC50
  EC50: 7400 nM

## COc1cc(C[C@@H](C)N)c(OC)cc1C
[1]; rd-hga16
  EC50: Not Active
[2]; rd-hga16
  EC50: Not Active

## C[C@@H](N)Cc1cccc(C(F)(F)F)c1
[1]; rd-hga16
  EC50: Not Active

## CCc1cc(OC)c(C[C@H](C)N)cc1OC
[2]; rd-hga16
  EC50: Not Active

## COc1cccc(C[C@H](C)N)c1 [(S)-M-METHOXYAMPHETAMINE]
[1]; read-out: EC50
  EC50: 1900 nM
[2]; read-out: EC50
  EC50: 3300 nM

## NCCc1ccc(Oc2ccc(O)cc2)c(I)c1
[7]
  EC50: 1510 nM

## C[C@@H](N)Cc1ccc2c(c1)OCO2
[1]; read-out: EC50
  EC50: 11700 nM
[2]; read-out: EC50
  EC50: 2480 nM

## CN[C@@H](C)Cc1ccc2c(c1)OCO2
[2]; read-out: EC50
  EC50: 16100 nM

## CNC(C)Cc1ccc2c(c1)OCO2 (racemic) [MIDOMAFETAMINE]
[3]
  EC50: 1700 nM

## C[C@H](N)Cc1ccc2c(c1)OCO2
[1]; read-out: EC50
  EC50: 6570 nM
[2]; read-out: EC50
  EC50: 1350 nM

## C[C@@H](N)Cc1ccc(O)cc1
[1]; read-out: EC50
  EC50: 3160 nM
[4]
  EC50: 60 nM
[2]; read-out: EC50
  EC50: 424 nM
[5]
  EC50: 5650 nM
[6]
  EC50: > 8540 nM

## NCCc1ccccc1 [PHENETHYLAMINE]
[7]
  EC50: 106 nM

## CN[C@@H](C)Cc1ccccc1 [METHAMPHETAMINE]
[1]; read-out: EC50
  EC50: 1500 nM
[4]
  EC50: 890 nM
[2]; read-out: EC50
  EC50: 5300 nM
[5]
  EC50: 920 nM
[6]
  EC50: 4440 nM
[8]
  EC50: 1300 nM
[9]
  EC50: 70 nM

## CCc1cc(OC)c(C[C@@H](C)N)cc1OC
[1]; rd-hga16
  EC50: Not Active
[2]; rd-hga16
  EC50: Not Active

## COc1cc(C[C@H](C)N)c(OC)cc1Br
[1]; read-out: EC50
  EC50: 15300 nM
[2]; read-out: EC50
  EC50: 2140 nM

## COc1cc(C[C@@H](C)N)c(OC)cc1Br
[1]; read-out: EC50
  EC50: 31900 nM
[2]; read-out: EC50
  EC50: 13900 nM
